Patent publication US11230575B2, “Insoluble fusion protein comprising antimicrobial peptide and method for producing antimicrobial peptide using same” (Konkuk University Industrial Cooperation Corp., priority 2016, dated 2022)

Columns and labels:
Assay in all cases: spot-on-lawn antimicrobial activity test
Assay type in all cases: cell-based
[1] = test system: Escherichia coli ATCC 25922
Method: (§1) In order to evaluate the antimicrobial activity of the purified antimicrobial peptides PG1 and PMAP36 according to the embodiment of the present invention, a spot-on-lawn test was carried out using E. coli ATCC 25922, Pseudomonas aeruginosa ATCC 27853, and Staphylococcus aureus ATCC 29213.

[2] = test system: Staphylococcus aureus ATCC 29213
Method: as §1

[3] = test system: Pseudomonas aeruginosa ATCC 27853
Method: as §1

Substance | Antimicrobial activity assay for the recombinant AMP produced [1] [µg/mL] | Antimicrobial activity assay for the recombinant AMP produced [2] [µg/mL] | Antimicrobial activity assay for the recombinant AMP produced [3] [µg/mL]
Protegrin 1 (RGGRLCYCRRRFCVCVGRG) [PG1, recombinantly produced antimicrobial peptide with anti-parallel beta-hairpin structure stabilized by two disulfide bonds, first discovered in pig leucocytes] | 7 | 10 | 15
pig myeloid antibacterial peptide36 (GRFRRLRKKTRKRLKKIGKVLKWIPPIVGSIPLGCG; listed as Sus scrofa) [PMAP36, recombinantly produced antimicrobial peptide having a helix structure] | 10 | 9 | 11
